Data on one substance can be found in patent US20020107197A1, “Ligands for G protein coupled receptors and methods of using them” (priority 2000, published 2002).

Holding throughout (assay type): cell-based
In assay [1] the target is T1, GPR4 (Homo sapiens, UniProt P46093).
T1 construct: were used to generate full length GPR4, which was digested with EcoRI and Xba I and cloned into the pBs3HA vector; expressed in transfected cells
In words: ERK MAP kinase activation (phospho-ERK Western blot) in GPR4-infected Swiss 3T3 cells. The note with it: PTX 100 ng/ml 12-16 h. How it is done: MAP kinases are key signaling intermediates of DNA synthesis and cell proliferation. Swiss 3T3 cells were infected with MSCV GPR4-ires-GFP or MSCV ires-GFP, and subsequently cells sorted by FACS for positive expression of GFP as described previously (Kabarowski et al. (2000) Proc Natl Acad Sci USA. 97, 12109-12114). Cells were plated in 6-well plates in DMEM containing 5% FBS, serum-starved overnight, and then treated lipids in DMEM for the indicated times. Cells were lysed on ice in RIPA buffer containing 50 mM Tris-HCl, pH 7.5, 1% Nonidet P-40, 0.5% deoxycholate,0.1% SDS, 150 mM NaCl, 2 mM EGTA, 25 mM sodium fluoride, 1 mM sodium orthovanadate, and 1× protease inhibitors (Sigma P8340). Lysates containing equal amounts of protein were separated on 10% SDS-polyacrylamide gels and transferred onto nitrocellulose membranes. Antibodies against phosphorylated ERK1/2 (Cell Signaling Technologies; Beverly, Mass.) were used to probe the membrane and the ECL system (Amersham) was used for detection. To normalize the amounts of protein loaded in each lane, membranes were stripped and re-probed with antibodies against total ERK (Cell Signaling Technologies). In some experiments, cells were pretreated with 100 ng/ml PTX for 12-16 h prior to SPC and LPC stimulation.

In assay [2] the target is T1, GPR4. In words: DNA synthesis ([3H]thymidine incorporation) in GPR4-infected Swiss 3T3 cells. The following applies: PTX 100 ng/ml for 16 h; GFP- and GPR4-GFP expressing cells. How it is done:
The effect of SPC and LPC on DNA synthesis was measured using [^3H] thymidine incorporation. Briefly, GPR4-ires-GFP- and GFP-Swiss 3T3 cells were plated in 96-well plates, serum-starved for 24 h, and treated with SPC, LPC, or other lipids in serum-free DMEM for 24 h. Cells were incubated with 0.75 μCi/ml [^3H]thymidine in serum-free DMEM for the last 18 h. Cells were harvested onto filter papers presoaked in 1% polyethylenimine using the automated cell harvester HARVEST 96. Incorporated [^3H]thymidine was counted in a 1450 Microbeta Trilux Liquid Scintillation and Luminescence Counter (Perkin-Elmer-Wallac, Inc.).

Assay [3] addresses T1, GPR4. Briefly: Single-cell intracellular calcium assay (fura-2) in GPR4-GFP-transfected MCF10A cells. The note with it: PTX 100 ng/ml, 16 h pretreatment. On the procedure:
Measurement of [Ca^2+]i, was performed as described previously in Xu et al. (2000) Nat Cell Biol 2, 261-267. Briefly, pGPR4-GFP-transfected MCF10A cells were grown in specialized glass-bottom dishes (Bioptech, Inc., Butler, Pa.) and loaded with fura-2 in HEPES buffered saline. Using a dual-wavelength spectrofluorometer (RFK-6002, Photon Technology Int'l, So. Brunswick, N.J.) coupled to an inverted fluorescence microscope (Olympus, IX-70, Lake Success, N.Y.), GFP-positive cells were identified using an excitation wavelength of 488 nm, a dichroic 505 nm long-pass filter and an emitter filter at bandpass of 535 nm (Chroma Technology, Brattleboro, Vt.). Measurements of [Ca^2+]i were performed on individual GPR4-GFP positive cells at excitation wavelengths of 340 and 380 nm and an emission wavelength of 510 nm. Conversion of the 340/380 ratio value into [Ca^2+]i in nM was estimated by comparing the cellular fluorescence ratio with ratios acquired using fura-2 (free acid) in buffers containing known Ca^2+ concentrations. [Ca^2+]i was then calculated as described by Grynkiewicz et al. (1985) J Biol Chem 260, 3440-3450. All calcium assays were performed in the presence of 1 mM EGTA in the assay buffers. Therefore, intracellular calcium release, not calcium influx, was analyzed.
To test whether GPR4 is a receptor for SPC, MCF10A cells were transiently transfected with pGPR4-GFP.
The GFP receptor fusion was used to identify positively transfected cells, and single-cell calcium assays were performed as described in our previous studies, such as Xu et al. (2000) Nat Cell Biol 2, 261-267.

Assay [4] has as its target T1, GPR4. In words: SRE luciferase reporter in GPR4-transfected HEK293 cells. The following applies: PTX 100 ng/ml 16 h; C3-exoenzyme co-transfected. How it is done:
The serum-response element (SRE) reporter system is a sensitive assay for receptors of lipid factors (An et al. (1998) J Biol Chem 273, 7906-7910; An et al. (1999) Mol Pharmacol 55, 787-794). The SRE reporter system used herein (pSRE-Luc) was a gift from Dr. Songzhu An (UCSF), or may be purchased from Stratagene (La Jolla, Calif.). Both systems give identical results. HEK293 and HEK293GPR4 cells were cultured in RPMI1640 with 10% FBS in 10 cm dishes to ˜85% confluence. To the cells in each dish, pSRE-Luc (10 μg) was transfected in the presence of 60 μl LipofectAMINE reagent. Cells were seeded in 96-well plates 16 h after transfection, incubated for another 24 h in RPMI1640 with 10% FBS, and starved in serum-free medium for 16 h. SPC (dissolved in PBS to 10 mM) and other lipids (LPCs were dissolved in 70% ethanol. Other lipids were dissolved in PBS, 70-95% ethanol, or 100% MeOH) were diluted in serum free RPMI 1640 and added to the cells, followed by a 10 h incubation. Luciferase activity was measured in Microlite™ 1 plates (DYNEX Technologies, Inc., Virginia) using 60 μl of cell lysate and 20 μl luciferase substrate. PTX (100 ng/ml) was added during the 16 h serum starvation period and pcDNA1-C3 (encoding the C3-exoenzyme, 2 μg) was co-transfected with pSRE-Luc (10 μg). All experiments were performed in quadruplicate and were repeated at least three times. The Student's t test was performed using the GraphPad Instat software (San Diego, Calif.). p<0.05 was considered to be statistically significant.

Another assay deals with T2, OGR1 (Homo sapiens, UniProt Q15743).
T2 construct: expressed in transfected cells
In words: ERK activation in OGR1-infected Swiss 3T3 cells.

T1 sequence (P46093 whole entry): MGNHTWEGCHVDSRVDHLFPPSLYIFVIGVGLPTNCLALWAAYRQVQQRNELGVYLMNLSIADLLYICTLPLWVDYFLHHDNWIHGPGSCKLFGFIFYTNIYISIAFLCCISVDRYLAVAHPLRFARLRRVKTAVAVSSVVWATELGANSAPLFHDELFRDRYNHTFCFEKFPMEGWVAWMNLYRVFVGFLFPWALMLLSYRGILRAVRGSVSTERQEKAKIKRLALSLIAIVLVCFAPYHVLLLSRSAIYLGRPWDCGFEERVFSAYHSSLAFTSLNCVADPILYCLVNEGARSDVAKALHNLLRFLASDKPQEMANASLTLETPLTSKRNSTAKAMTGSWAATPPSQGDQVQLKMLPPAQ
T2 sequence (Q15743 whole entry, species assumed): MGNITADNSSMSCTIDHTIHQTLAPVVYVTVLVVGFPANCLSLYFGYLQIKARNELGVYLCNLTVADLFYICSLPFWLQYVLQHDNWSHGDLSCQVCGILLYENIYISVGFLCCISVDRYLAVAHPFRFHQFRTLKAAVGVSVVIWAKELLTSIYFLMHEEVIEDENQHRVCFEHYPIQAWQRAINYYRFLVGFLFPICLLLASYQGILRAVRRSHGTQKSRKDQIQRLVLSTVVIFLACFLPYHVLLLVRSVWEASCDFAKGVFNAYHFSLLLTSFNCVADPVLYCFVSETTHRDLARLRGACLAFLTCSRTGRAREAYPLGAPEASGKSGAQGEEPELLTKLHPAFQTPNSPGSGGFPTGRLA

For pertussis toxin [PTX], the figures for the “PTX sensitivity of SPC-induced ERK activation” value on GPR4 [1] and at OGR1 were “sensitive to PTX” and “PTX-insensitive”, respectively. Further, on GPR4 [2], the “effect of PTX on DNA synthesis stimulated by SPC” value was “inhibited by PTX”. Further, at GPR4 [3], the “effect of PTX on [Ca2+]i response to SPC and LPC” value is reported as “completely abolished”. The “inhibition of SRE-reporter activation by SPC and 16:0-LPC” value against GPR4 [4] is “partially inhibited SRE-reporter activation”.
